From US20250306018A1, “METHODS FOR CHARACTERIZING INTERACTIONS BETWEEN ANALYTES” (Nautilus Subsidiary, Inc., priority 2021, published 2025)

Tested on: serum proteins
Experiment: Binding of fluorescently-labeled detectable probes to a single-analyte array of serum protein conjugates, confocal fluorescent microscopy
Set-up: species or system human
Conditions: patterned array of serum protein conjugates
Source text: A blood sample is collected from a human medical subject. A serum fraction containing serum proteins is purified from the blood sample via centrifugation of a whole blood sample obtained from the medical subject and collection of the resulting supernatant. The supernatant includes collected serum proteins as well as several impurities, including trace amounts of clotting factors, vitamins, cofactors, nucleic acids, triglycerides, cholesterols, electrolytes (e.g., Ca^2+, Mg^2+, Na^+, K^+, Fe^2+, etc.), trace amounts of non-human antigens (e.g, viral antigens), and trace amounts of the medical subject's prescribed pharmaceuticals. The fraction containing the extracted serum proteins is modified to incorporate a transcyclooctene (TCO) moiety at some of the amine-containing amino acid sidechain of the present proteins. Each modified serum protein is conjugated to a structured nucleic acid particle (SNAP) containing a methyltetrazine (mTz) attachment moiety via a TCO-mTz Click-type reaction to form a plurality of serum protein conjugates. Certain impurities are also conjugated to SNAPs due to cross-reactivity with functionalization reagents and/or methyltetrazine. […]
The patterned array of serum protein conjugates is characterized by cyclical binding of affinity reagents. […] Identities of serum proteins are determined for […] of addresses on the array to beyond a confidence level of 99.9%. […]

polypeptide species bound by the detectable probe (addresses with identified serum albumin excluded): fewer polypeptide species
binding affinity of the detectable probe for bound polypeptide species (judged by repeatability of observed binding): low degree of binding affinity
Substance: VEGF
